For three molecules, IC50 results are on record in patent US12565501B2, “Muscarinic acetylcholine M1 receptor antagonists” (Contineum Therapeutics, Inc., priority 2019, dated 2026).

What all share (assay type): cell-based
One assay deals with T1, human M1 receptor (Homo sapiens, UniProt P11229).
T1 sequence (P11229 1-460): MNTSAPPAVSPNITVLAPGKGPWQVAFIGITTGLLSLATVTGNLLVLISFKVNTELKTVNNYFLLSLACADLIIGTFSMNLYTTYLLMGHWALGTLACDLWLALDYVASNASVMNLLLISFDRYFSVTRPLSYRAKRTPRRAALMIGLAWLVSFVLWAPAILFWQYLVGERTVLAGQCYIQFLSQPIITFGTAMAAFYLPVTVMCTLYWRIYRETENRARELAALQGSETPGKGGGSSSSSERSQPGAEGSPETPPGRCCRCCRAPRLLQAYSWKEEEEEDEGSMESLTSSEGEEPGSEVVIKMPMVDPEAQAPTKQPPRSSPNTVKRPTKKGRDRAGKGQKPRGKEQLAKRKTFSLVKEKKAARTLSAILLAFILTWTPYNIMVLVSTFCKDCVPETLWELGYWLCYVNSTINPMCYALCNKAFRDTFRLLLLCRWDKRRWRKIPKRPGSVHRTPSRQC
Kind of assay: In vitro functional assay of muscarinic acetylcholine receptor activity (aequorin calcium flux, reversal of EC80 acetylcholine response). Conditions: CHO-K1 cells stably expressing human M1 receptor with aequorin; acetylcholine at EC80; calcium flux (luminescence); read-out: M1 IC50. Summed up: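 Antagonist mode: compound (final 0.1% DMSO) and coelenterazine-loaded M1/aequorin CHO-K1 cells incubated 30 min in the dark before EC80 acetylcholine addition. Calcium flash integrated as 40 s luminescence AUC; IC50 derived from dose-response curves.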
(Calcium flux is commonly read through the fluorescence of an indicator in the cells.)

Another assay addresses T2, human M2 receptor (Homo sapiens, UniProt P08172).
T2 sequence (P08172 1-466): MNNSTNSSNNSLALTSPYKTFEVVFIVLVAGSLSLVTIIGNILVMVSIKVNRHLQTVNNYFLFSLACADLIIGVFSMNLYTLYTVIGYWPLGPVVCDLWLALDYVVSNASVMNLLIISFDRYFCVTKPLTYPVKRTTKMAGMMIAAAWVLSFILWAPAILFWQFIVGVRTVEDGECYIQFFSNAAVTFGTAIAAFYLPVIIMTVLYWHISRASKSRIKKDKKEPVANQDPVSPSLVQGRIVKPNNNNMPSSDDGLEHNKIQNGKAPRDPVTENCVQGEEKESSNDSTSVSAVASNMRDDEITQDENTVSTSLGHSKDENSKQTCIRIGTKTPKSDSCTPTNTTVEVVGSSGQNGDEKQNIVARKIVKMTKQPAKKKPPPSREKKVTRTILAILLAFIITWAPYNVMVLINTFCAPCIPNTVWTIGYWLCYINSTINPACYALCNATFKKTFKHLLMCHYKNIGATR
Kind of assay: In vitro functional assay, reversal of EC80 acetylcholine response in CHO-K1 aequorin cells. How it is done: (§1) CHO-K1 cells stably expressing human M1 receptor with aequorin (Perkin Elmer) were grown in F12 media (Gibco) containing 10% FBS (ATCC), 0.4 mg/mL geneticin (Sigma-Aldrich) and 0.25 mg/mL Zeocin (Invitrogen). Cells were grown as per the manufacturer's protocol. For compound testing, cells were grown to confluency and detached gently with Accutase (Sigma-Aldrich) followed by centrifugation for 5 min at 150× g. Cells were then re-suspended in assay buffer (i.e. DMEM/F-12 HEPES without phenol red (Invitrogen) with 0.1% BSA (Sigma-Aldrich)) at a density of 5×10^6 cells/ml. Under sterile conditions, 5 μM coelenterazine (Invitrogen) was added to the cells, mixed, then incubated at room temperature protected from light, with gentle agitation, for 4 h.
(§2) Primary compound plates were prepared in 100% DMSO in opaque 96-well plates (VWR) and serially diluted in half log increments. Secondary compound plates were prepared at 3× concentration in assay buffer. Compounds were added to white, clear bottom tissue culture treated 96-well plates (Fisher Scientific). Coelenterazine-loaded cells were then added at 5×10^5 cells/well.
(§3) Compounds and cells were incubated at room temperature for 30 min in the dark. Acetylcholine at the EC80 concentration was added and calcium flux measured using a FlexStation 3 (Molecular Devices). Sigmoidal dose-response curves were generated by measuring luminescence over 40 sec and calculating the area under the curve. Dose response curves and IC50 values were generated using Prism (GraphPad). Compounds were tested at a final concentration range of 100 μM to […] in 0.1% DMSO.
(§4) CHO-K1 cells stably expressing human M2, M3 and M4 receptors, respectively, with aequonin (Perkin Elmer) were used to assess a test compound's ability to dose-dependently reverse the EC80 acetylcholine response. The IC50 of the compounds was calculated from the dose response curve.

Another assay has as its target human M3 receptor (Homo sapiens, UniProt P20309). The description is as above. On the procedure:
as §1, §2, §3, §4

For another assay, the target named is T3, human M4 receptor (Homo sapiens, UniProt P08173).
T3 sequence (P08173 1-479): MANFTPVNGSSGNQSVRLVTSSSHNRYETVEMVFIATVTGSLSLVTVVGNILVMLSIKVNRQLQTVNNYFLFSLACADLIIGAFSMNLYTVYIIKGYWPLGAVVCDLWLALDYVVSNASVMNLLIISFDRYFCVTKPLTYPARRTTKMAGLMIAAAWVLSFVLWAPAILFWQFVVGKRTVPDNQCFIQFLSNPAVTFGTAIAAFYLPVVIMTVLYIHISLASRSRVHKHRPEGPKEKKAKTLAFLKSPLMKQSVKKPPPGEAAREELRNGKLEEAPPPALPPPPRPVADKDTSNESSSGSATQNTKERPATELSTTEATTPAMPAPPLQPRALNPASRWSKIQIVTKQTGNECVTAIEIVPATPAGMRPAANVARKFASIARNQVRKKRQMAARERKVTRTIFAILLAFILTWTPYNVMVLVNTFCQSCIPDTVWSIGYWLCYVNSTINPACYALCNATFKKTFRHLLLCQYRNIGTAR
The description is as above. How it is done: as §1, §2, §3, §4

human M3 receptor, sequence (P20309 whole entry): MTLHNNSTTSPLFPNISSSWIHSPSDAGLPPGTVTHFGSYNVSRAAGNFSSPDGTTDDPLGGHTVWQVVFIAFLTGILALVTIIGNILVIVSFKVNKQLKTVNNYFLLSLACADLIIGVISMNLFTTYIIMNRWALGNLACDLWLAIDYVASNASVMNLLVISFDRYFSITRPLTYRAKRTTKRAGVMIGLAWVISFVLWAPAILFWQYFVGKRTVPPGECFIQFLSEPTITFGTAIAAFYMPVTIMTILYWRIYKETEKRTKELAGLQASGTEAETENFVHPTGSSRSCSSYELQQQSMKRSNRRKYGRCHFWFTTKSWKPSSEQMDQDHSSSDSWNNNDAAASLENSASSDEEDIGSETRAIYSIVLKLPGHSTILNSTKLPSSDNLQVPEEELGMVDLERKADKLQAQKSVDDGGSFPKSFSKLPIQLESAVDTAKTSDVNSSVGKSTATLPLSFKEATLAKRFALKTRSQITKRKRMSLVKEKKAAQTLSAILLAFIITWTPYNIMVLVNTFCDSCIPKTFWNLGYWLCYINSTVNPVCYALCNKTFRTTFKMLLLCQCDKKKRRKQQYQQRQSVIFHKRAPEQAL

As a reminder, the IC50 is the point on the concentration scale where inhibition reaches its midpoint. Regarding `COc1cccnc1C(F)(F)CCC(=O)N1CC2CCC(C1)N2c1ccc(C#N)cn1` [Example 162, 6-(3-(4,4-difluoro-4-(3-methoxypyridin-2-yl)butanoyl)-3,8-diazabicyclo[3.2.1]octan-8-yl)nicotinonitrile], the IC50 was under 10 nM on human M1 receptor, 1000 to 10000 nM on human M2 receptor, 100 to 1000 nM on human M3 receptor and 100 to 1000 nM on human M4 receptor.

`N#Cc1ccc(N2C3CCC2CN(C(=O)COC2(c4ccc(F)c(F)c4)CC2)C3)nc1` [Example 177, 6-(3-(2-(1-(3,4-difluorophenyl)cyclopropoxy)acetyl)-3,8-diazabicyclo[3.2.1]octan-8-yl)nicotinonitrile]: the IC50 on human M1 receptor was 10 to 100 nM; at human M2 receptor, 1000 to 10000 nM; on human M3 receptor it was 1000 to 10000 nM; at human M4 receptor, 1000 to 10000 nM.

In the case of `N#Cc1ccc(N2C3CC[C@H]2CN(C(=O)COC2(c4ccc(F)c(F)c4)CCC2)C3)nc1` [Example 239], the half-inhibitory concentration (IC50) at human M1 receptor was under 10 nM; on human M2 receptor it was 1000 to 10000 nM; on human M3 receptor it was 1000 to 10000 nM; on human M4 receptor, 1000 to 10000 nM.
